The values below come from patent publication US20030144345A1, “Treatment of metabolic diseases with soraphen derivatives” (priority 2001, published 2003).

This assay addresses T1, human ACCβ enzyme (Homo sapiens, UniProt O00763).
T1 construct: The cloning of the full length human muscle-type ACCβ cDNA and expression in HEK293 cells; made in house; host or cells: HEK293 cells (ATCC CRL-1573), plasmid pRF33D
Nature of the assay: Human ACCβ enzyme activity / inhibition assay (radiometric). Type of assay: biochemical. The settings on record: for Effect on K0.5 of K-citrate / Effect on Vmax of the ACC enzyme reaction: titration of compound at 0.5, 1 and 2 times IC50. On the procedure:
The cloning of the full length human muscle-type ACCβ cDNA and expression in HEK293 cells (ATCC, #CRL-1573) was performed as follows. The ACCβ cDNA was amplified by the polymerase chain reaction (PCR) and was cloned using standard recombinant DNA techniques. The PCR reaction was performed with the Expand Long Template PCR System (Roche Molecular Biochemicals, #1 681 8340) and 0.5 ng of cDNA from human skeletal muscle as template. The primers used for PCR amplification were designed on the basis of the published sequence of the human ACCβ cDNA isolated from a human liver cDNA library (Abul-Elheiga et al. J. Biol Chem. 272, 10669-10677, 1997). The sequence of the forward primer ACCB1 was 5′-[…]-3′; it includes a NheI restriction cleavage site for subcloning and a Kozak translation initiation consensus sequence preceding the ATG start codon. The sequence of the reverse primer ACCB8 was 5′-[…]-3′; it includes a stop codon and a XhoI restriction cleavage site for subcloning. The amplified DNA fragment of approximately 7.4 kb was cloned into a mammalian expression vector. The resulting plasmid isolates, pRF33A, B, C, D, and E were individually transfected in human embryonic kidney 293 cells (HEK293) using a standard lipid transfection method. Cell extracts of transfected cells were prepared in a lysis buffer containing 0.4 mg/ml digitonin and enzyme activity was determined using a radiometric ACC activity assay as described below. Plasmid pRF33D gave the highest activity and was chosen for large scale transfections of HEK293 cells and enzyme purification.
Since ACC enzyme activities in crude cell lysates were very low, enrichment of ACCβ enzyme expressed in HEK293 cells was achieved by a single anion exchange chromatography step. Cell lysates were run over a 5 ml Econo Pac High Q column (Bio-Rad, #732-0027). Bound proteins were eluted by a gradient of NaCl from 0 to 1 M in 50 mM Tris-HCl, pH 7.5, 1 mM DTT, 5% glycerol. Fractions containing high ACCβ enzyme activity were pooled and stored at −20° C.
Standard ACCβ enzyme assays, in a total volume of 100 μl, contained 50 mM HEPES-KOH, pH 7.5, 10 mM K-citrate, 10 mM MgSO4, 1 mM ATP, 0.1 mM DTT, 2% DMSO, 0.1 mg/ml fatty acid-free BSA, 0.2 mM acetyl-CoA, 2 mM KHCO3, 0.2 mM [^14C]NaHCO3 (50-60 mCi/mmol) and cell lysate or purified ACCβ enzyme. Reactions were incubated at 37° C. for 45 min. and stopped by the addition of 50 μl of 2 N HCl. Terminated reactions were incubated at 50° C. over night to evaporate non-incorporated [^14C]NaHCO3. [^14C]-labeled malonyl-CoA reaction product was quantitated by liquid scintillation counting after the addition of 20 μl of Microscint 20 (Canberra Packard, #6013621) on a TopCount NXT microplate scintillation counter (Canberra Packard).
Inhibition of ACCβ activity was determined at saturating substrate concentrations with two-fold serial dilutions of test compounds spanning a concentration range of at least two log units. IC50 values were calculated with the GraFit software (Erithacus Software Ltd.). Kinetic parameters (Km, Vmax and K0.5) were determined by varying one substrate (or allosteric effector) in a two-fold serial dilution over a concentration range of at least two log units while keeping all other substrates at constant saturating concentrations. Fitting to the Michaelis-Menten equation (for calculation of Km of substrates) and fitting to the Hill equation (for calculation of K0.5of the allosteric activator K-citrate) was done with the GraFit software. To determine the mode of action of Soraphens, determinations of Km for ATP and acetyl-CoA and of K0.5 for K-citrate were repeated in the absence and in the presence of the three different Soraphens at 0.5, 1 and 2 times their IC50 and the data were fitted to the equation for non-competitive inhibition with the GraFit software.

Structures are written as SMILES.

T1 sequence (O00763 whole entry): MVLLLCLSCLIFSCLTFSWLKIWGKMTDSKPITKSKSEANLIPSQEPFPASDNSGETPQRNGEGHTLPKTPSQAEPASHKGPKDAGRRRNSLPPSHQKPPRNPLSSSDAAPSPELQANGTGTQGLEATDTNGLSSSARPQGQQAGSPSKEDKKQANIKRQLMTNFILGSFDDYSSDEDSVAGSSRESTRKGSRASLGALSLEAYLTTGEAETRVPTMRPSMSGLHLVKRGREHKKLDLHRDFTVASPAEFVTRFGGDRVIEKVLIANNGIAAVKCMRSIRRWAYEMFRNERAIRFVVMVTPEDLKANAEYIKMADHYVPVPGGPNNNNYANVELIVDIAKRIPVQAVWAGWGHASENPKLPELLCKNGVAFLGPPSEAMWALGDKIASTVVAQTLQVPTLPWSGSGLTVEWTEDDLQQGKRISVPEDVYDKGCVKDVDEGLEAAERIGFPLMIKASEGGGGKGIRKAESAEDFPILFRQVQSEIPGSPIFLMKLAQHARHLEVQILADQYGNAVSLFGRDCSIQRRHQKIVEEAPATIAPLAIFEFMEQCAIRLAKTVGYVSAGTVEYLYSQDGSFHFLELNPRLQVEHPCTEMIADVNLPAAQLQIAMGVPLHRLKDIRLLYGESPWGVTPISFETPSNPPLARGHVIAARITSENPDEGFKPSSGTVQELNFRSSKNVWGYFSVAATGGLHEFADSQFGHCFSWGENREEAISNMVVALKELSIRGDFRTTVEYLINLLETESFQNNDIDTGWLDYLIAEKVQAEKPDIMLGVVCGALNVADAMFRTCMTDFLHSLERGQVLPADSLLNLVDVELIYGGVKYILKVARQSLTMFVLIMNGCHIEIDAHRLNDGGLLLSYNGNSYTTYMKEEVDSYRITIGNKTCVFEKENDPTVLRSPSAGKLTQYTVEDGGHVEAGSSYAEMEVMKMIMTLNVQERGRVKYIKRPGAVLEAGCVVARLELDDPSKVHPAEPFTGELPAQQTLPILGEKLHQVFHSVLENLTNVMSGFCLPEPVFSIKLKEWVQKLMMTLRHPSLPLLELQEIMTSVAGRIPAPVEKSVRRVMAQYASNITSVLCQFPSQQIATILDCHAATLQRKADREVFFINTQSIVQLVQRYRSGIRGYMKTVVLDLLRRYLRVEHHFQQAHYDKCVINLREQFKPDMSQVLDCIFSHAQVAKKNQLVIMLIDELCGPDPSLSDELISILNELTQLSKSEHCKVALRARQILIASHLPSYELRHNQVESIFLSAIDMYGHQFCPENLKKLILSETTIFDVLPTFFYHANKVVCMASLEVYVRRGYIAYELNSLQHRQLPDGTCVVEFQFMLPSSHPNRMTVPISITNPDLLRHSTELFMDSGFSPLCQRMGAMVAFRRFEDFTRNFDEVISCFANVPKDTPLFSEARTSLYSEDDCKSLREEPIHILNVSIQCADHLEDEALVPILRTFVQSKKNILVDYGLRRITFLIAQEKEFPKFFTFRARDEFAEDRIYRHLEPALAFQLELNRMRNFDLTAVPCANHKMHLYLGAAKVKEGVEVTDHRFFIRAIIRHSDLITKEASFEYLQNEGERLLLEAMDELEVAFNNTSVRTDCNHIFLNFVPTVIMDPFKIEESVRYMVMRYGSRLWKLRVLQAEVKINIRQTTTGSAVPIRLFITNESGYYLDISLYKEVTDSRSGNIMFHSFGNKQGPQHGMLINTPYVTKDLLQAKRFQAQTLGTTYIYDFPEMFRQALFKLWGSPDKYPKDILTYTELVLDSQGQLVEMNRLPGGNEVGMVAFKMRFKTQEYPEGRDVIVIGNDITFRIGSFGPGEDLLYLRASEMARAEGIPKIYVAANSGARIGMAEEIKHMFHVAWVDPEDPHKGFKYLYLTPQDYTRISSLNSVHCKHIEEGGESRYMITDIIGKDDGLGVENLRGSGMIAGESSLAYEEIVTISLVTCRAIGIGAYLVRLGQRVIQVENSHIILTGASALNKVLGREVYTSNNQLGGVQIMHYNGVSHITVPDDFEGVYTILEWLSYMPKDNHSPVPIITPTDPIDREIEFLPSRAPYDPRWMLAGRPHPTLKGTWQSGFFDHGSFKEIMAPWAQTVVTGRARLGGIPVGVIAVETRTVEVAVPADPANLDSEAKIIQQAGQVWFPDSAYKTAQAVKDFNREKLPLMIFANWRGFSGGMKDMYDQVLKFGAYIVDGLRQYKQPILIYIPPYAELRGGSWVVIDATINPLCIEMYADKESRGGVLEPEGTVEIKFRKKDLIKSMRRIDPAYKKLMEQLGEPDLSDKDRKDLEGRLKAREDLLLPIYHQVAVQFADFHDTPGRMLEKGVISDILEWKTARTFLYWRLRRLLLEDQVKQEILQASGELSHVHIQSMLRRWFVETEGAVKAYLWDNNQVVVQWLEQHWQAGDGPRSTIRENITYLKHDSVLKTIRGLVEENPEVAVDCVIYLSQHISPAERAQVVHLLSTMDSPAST

As for `CO[C@H]1CCCC[C@@H](c2ccccc2)OC(=O)[C@@H](C)C2(O)O[C@H]([C@@H](C)[C@H](O)[C@H]2OC)[C@@H](C)/C=C/[C@H]1OC` [Cpd (Ia), Soraphen A 1-α], the IC50 (commonly the concentration that inhibits the measured activity by half) was found to be 3 nM, the “Effect on K0.5 of K-citrate” value is on record as “did not change” and the “Effect on Vmax of the ACC enzyme reaction” value is listed as “dose-dependent decrease”. Further, where the note is “listed as Soraphen A 1-α”, the “Effect on K0.5 of K-citrate” value is reported as “little effect” and the “Effect on Vmax of the ACC enzyme reaction” value is “reduced”.
